In patent US20110184018A1, “METHOD FOR TREATING PERIPHERAL NEUROPATHIC PAIN” (LOHOCLA RESEARCH CORPORATION, priority 2005, published 2011):

Assays:
[1] = target: T1, glycine recognition site of the NMDA receptor complex (Rattus norvegicus, UniProt P35439); experiment: [3H]5,7-DCKA binding assay; conditions: rat cortical membranes; none = no displacement at 100 μM
T1 construct: The telencephalon (cerebral cortex, hippocampus, and striatum) was dissected and homogenized; from tissue; host or cells: rat telencephalon membranes (cerebral cortex, hippocampus, striatum), Triton X-100 treated
Method: General receptor-binding procedures. Male Sprague-Dawley rats were decapitated and their brains removed rapidly. The telencephalon (cerebral cortex, hippocampus, and striatum) was dissected and homogenized in 20 volumes of ice-cold 0.32 M sucrose, 20 mM HEPES-KOH (pH 7.2 at room temperature) containing protease inhibitors ([…], 5 mg/mL antipain, 20 mg/mL soybean trypsin inhibitor, 500 μM benzamidine, […] aprotinin, and 500 μM phenylmethylsulfonyl fluoride) with a motor driven glass-TEFLON® fluorocarbon homogenizer (8-10 strokes at setting 1). The homogenate was centrifuged at 800 g for 10 minutes. The pellet was discarded and the supernatant was centrifuged at 20,000 g for 20 minutes. The resulting pellet was resuspended in 20 volumes of distilled water containing 500 μM benzamidine and centrifuged for 20 minutes at 7500 g. Then the supernatant and buffy coat were centrifuged three times (51,500 g for 20 minutes) in the presence of distilled water containing 500 μM benzamidine. All centrifugation steps were carried out at 4° C. The final pellet was frozen rapidly at −80° C.
On the day of the assay, the pelleted membranes were resuspended in 20 volumes of 50 mM HEPES-KOH buffer, pH 7.4, and incubated for 20 minutes at 37° C. followed by centrifugation (51,500 g for 20 minutes). Membranes were then resuspended in 50 mM HEPES-KOH buffer (pH 7.8) containing 0.08% Triton X-100. After stirring for 30 minutes at 4° C., the membranes were pelleted by centrifugation (100,000 g for 20 minutes). The membranes were then washed twice by resuspension in the buffer appropriate for the binding assay and centrifugation (100,000 g for 20 minutes). The final pellet was suspended in assay buffer. The amount of protein in the final membrane preparation was determined with the bicinchoninic acid method (BCA; Pierce Chemical Co., Rockford, Ill.). The final protein concentration used for our studies was 300 to 600 μg/mL. Receptor-binding protocols described below were adapted from published procedures. For all assays, the samples, all in duplicate or triplicate, were placed into scintillation vials containing 5.5 mL of scintillation liquid (Ultima Gold; Packard Instrument Co., Inc., Meriden, Conn.) and the retained radioactivity was determined by conventional scintillation spectroscopy with a Beckman TA-6000 scintillation counter. Radio-ligands were purchased from DuPont-NEN (Boston, Mass.).
[^3H]5,7-Dichlorokynurenic acid (5,7-DCKA)-binding assay. The glycine recognition site of the NMDA receptor complex was labeled with the competitive antagonist [^3H]5,7-dichlorokynurenic acid (5,7-DCKA). […]
Data Analysis. The data were analyzed with SigmaPlot 5.0 and SigmaStat 2.0 (Jandel Scientific, Corte Madera, Calif.) software. […]

[2] = test system: primary cultures of rat cerebellar granule cells; experiment: Glutamate-induced excitotoxic cell death; format: cell-based; conditions: 100 micromolar glutamate
Method: Glutamate Excitotoxicity. Primary cultures of cerebellar granule cells were prepared from 7-day-old Sprague-Dawley rats. The cultures were maintained in plates containing 24 wells (volume of 1 mL/well). Culture density was about 1.5×10^6 cells/mL. Cell viability was assayed after 7 or 8 days in culture by the production of fluorescein, formed from fluorescein diacetate by esterases present in living cells. Cells were washed with magnesium ion-free Locke's buffer, and then exposed to 100 μM glutamate alone, glutamate and 10 μM glycine, or each of these conditions in the presence of 100 μM DCUKA or 100 μM DCUK-OMe at 25° C. for 30 minutes. DCUKA and DCUK-OMe were added in 2-μl aliquots to yield a final DMSO concentration of 0.2%. […] Fluorescence of each well was measured on a Perkin-Elmer HTS7000 plate reader (excitation 485 nm; emission 535 nm; 16 measurements per well) with optimal gain settings. For each 24-well plate, the fluorescence of one control culture well (i.e., not exposed to glutamate) was automatically set to the highest fluorescence value, and fluorescence values were determined in all other wells with the same gain settings. Fluorescence measurements in all 24 wells were normalized to the control culture and expressed as a percentage of this value. Data are expressed as percentage of cell death (100-percentage of control). […]

O=C(O)c1cc(NC(=O)N(c2ccccc2)c2ccccc2)c2c(Cl)cc(Cl)cc2n1 [DCUKA, N,N-diphenyl-4-ureido-5,7-dichloro-2-carboxyquinoline]
IC50 [1]: 28 µM | protection from glutamate-induced damage ([2]; 100 μM compound): completely protected | reduction of cell death ([2]; 10 micromolar compound): more than 50%
